Our source for the IC50 values is patent US11479546B2, “Antimalarial hexahydropyrimidine analogues” (UCB Biopharma SRL, priority 2018, dated 2022).

By IC50 is commonly meant the point on the concentration scale where inhibition reaches its midpoint.

For the experiment, the system named is Plasmodium falciparum 3D7. The experiment is described as follows: P. falciparum 3D7 asexual blood stage assay, Assay Procedure Version 1 (SYBR green readout). Type of experiment: cell-based. Particulars: 3D7, Erythrocyte, Version 1 of the assay procedure (no asterisk), 72 h incubation in infected erythrocytes, 10,000 nM to 0.51 nM. The procedure:
Asexual Blood Stage Assay
The assay used to measure the effect of test compounds on a bloodstream stage of Plasmodium falciparum 3D7 strain employs SYBR green as the readout. This is a dye that binds to double stranded deoxyribonucleic acid (DNA) with a resulting increase in fluorescence, allowing detection of P. falciparum DNA in infected erythrocytes, and thereby providing a measure of parasite growth and propagation.
P. falciparum Culture Maintenance
Erythrocytes (A+blood) were prepared for both parasite culture and assay by washing 4 times with incomplete media (15.9 g RPMI 1640 (25 mM HEPES, L-glutamine), 1 g NaHCO3, 2 g glucose, 400 μL gentacin (500 mg/mL), 2 mL hypoxanthine solution (13.6 g/L in 0.1M NaOH pH 7.3) in 1 litre of media). The cells were centrifuged at 1800 g for 5 minutes, before decanting the supernatant and re-suspending in fresh incomplete media. On the final wash, the cells were re-suspended in complete media (incomplete media with 5 g/L AlbumaxII), and centrifuged at 1800 g for 3 minutes. This cell sediment was treated as 100% haematocrit.
P. falciparum 3D7 was cultured in erythrocytes at 5% haematocrit in complete media at 37° C. (1% O2, 3% CO2, balance N2). Cultures were split on a weekly basis to achieve a 1% parasitaemia in erythrocites at 5% haematocrit in fresh media. Culture media is replaced by fresh media every other day (2 times during the week).
Assay Procedure—Version 1
On day 1, test compounds were added to assay plates using Echo dispensing technology (3 fold dilution and 10 points titration). 50 nL of each compound dilution was added to 50 μL of culture (5% haematocrit, 0.5% parasitaemia) and incubated for 72 h at 37° C. (1% O2, 3% CO2, balance N2). Final concentrations of test compounds ranged from 10,000 nM to 0.51 nM, in […].
On day 4, 10 μL SYBR green (Invitrogen S7563 supplied as 10,000×concentrate in DMSO) pre-diluted to 3× concentrate with Lysis buffer (20 mM Tris pH 7.9, 5% EDTA, 0.16% w/v, 1.6% TX100 v/v) was added to the cultures and incubated in the dark, overnight, at room temperature.
On day 5, fluorescent signal was measured using a BioTek plate reader (excitation 485 nm, emission 528 nm). All data were processed using IDBS ActivityBase. Raw data were converted into percent inhibition through linear regression by setting the high inhibition control as 100% and the no inhibition control as 0%. Quality control criteria for passing plates were as follows: Z′>0.5, S:B>3, % CV(no inhibition control)<15. The formula used to calculate Z′ is
All EC50 curve fitting was undertaken using the following 4 parametric equation:
[formula] where A=% inhibition at bottom; B=% inhibition at top; C=EC50; D=slope; x=inhibitor concentration; and y=% inhibition. […] Assay Procedure—Version 2
Compound `C[C@@]1(c2cccc(Nc3ccccc3)c2Cl)CC(=O)N(C2CCCCC2)C(=N)N1` [Example 4, (6S)-6-(3-Anilino-2-chloro-phenyl)-3-cyclohexyl-2-imino-6-methylhexahydropyrimidin-4-one] returned an IC50 of 0.075 µM.
Turning to `C[C@@]1(c2cccc(Nc3ccc(C(F)(F)F)cc3)c2Cl)CC(=O)N(CC2CCOCC2)C(=N)N1` [Example 173, (6S)-6-{2-Chloro-3-[4-(trifluoromethyl)anilino]-phenyl}-2-imino-6-methyl-3-(tetrahydropyran-4-ylmethyl)-hexahydropyrimidin-4-one], the IC50 is 1.54 µM.
`C[C@@]1(c2cccc(Nc3ccccc3)c2Cl)CC(=O)N(CC2(O)CC2)C(=N)N1` [Example 1, (6S)-6-(3-Anilino-2-chloro-phenyl)-3-[(1-hydroxy-cyclopropyl)methyl]-2-imino-6-methylhexahydropyrimidin-4-one] yielded an IC50 of 0.4 µM.
Compound `C[C@@]1(c2cccc(Nc3ccc(F)cc3)c2Cl)CC(=O)N([C@H]2C[C@@H]3CC[C@H]2O3)C(=N)N1` (racemic) [Example 188, (6S)-6-[2-Chloro-3-(4-fluoro-anilino)phenyl]-2-imino-6-methyl-3-[(1RS,2SR,4SR)-7-oxabicyclo[2.2.1]heptan-3-yl]-hexahydropyrimidin-4-one] came in with an IC50 of 3.46 µM.
As for `COC(=O)c1cccc(Nc2cccc([C@]3(C)CC(=O)N(C4CCOCC4)C(=N)N3)c2Cl)c1` [Example 166, Methyl 3-{2-chloro-3-[(4S)-2-imino-4-methyl-6-oxo-1-(tetrahydropyran-4-yl)-hexahydropyrimidin-4-yl]-anilino}benzoate], half-maximal inhibition (IC50) was put at 1.78 µM.
In turn, `C[C@@]1(c2cccc(Nc3ccccc3C#N)c2Cl)CC(=O)N(C2CCOCC2)C(=N)N1` [Example 17, 2-{2-Chloro-3-[(4S)-2-imino-4-methyl-6-oxo-1-(tetrahydro-pyran-4-yl)hexahydropyrimidin-4-yl]anilino}benzonitrile] registered an IC50 of 0.27 µM.
In turn, `C[C@@]1(c2cccc(Nc3ccc(N4CCOCC4)nc3)c2Cl)CC(=O)N(C2CCOCC2)C(=N)N1` [Example 25, (6S)-6-(2-Chloro-3-{[6-(morpholin-4-yl)pyridin-3-yl]amino}phenyl)-2-imino-6-methyl-3-(tetrahydropyran-4-yl)hexahydropyrimidin-4-one] displayed an IC50 of 0.821 µM.
The result for `C[C@@]1(c2cccc(Nc3ccccc3F)c2Cl)CC(=O)N(C2CCOCC2)C(=N)N1` [Example 36, (6S)-6-[2-Chloro-3-(2-fluoro-anilino)phenyl]-2-imino-6-methyl-3-(tetrahydropyran-4-yl)hexahydropyrimidin-4-one] reads 2.9 µM; that for `C[C@@H]1C[C@H](N2C(=N)N[C@](C)(c3cccc(Nc4cnc(C5CC5)nc4)c3Cl)CC2=O)CCO1` (relative stereo) [Example 204, (6S)-6-{2-Chloro-3-[(2-cyclo-propylpyrimidin-5-yl)amino]-phenyl}-2-imino-6-methyl-3-[(2R*,4R*)-2-methyltetrahydro-pyran-4-yl]hexahydropyrimidin-4-one], 0.031 µM; that for `C[C@@]1(c2cccc(Nc3ccnc(F)c3)c2Cl)CC(=O)N(C2CCOCC2)C(=N)N1` [Example 29, (6S)-6-{2-Chloro-3-[(2-fluoro-pyridin-4-yl)amino]phenyl}-2-imino-6-methyl-3-(tetrahydro-pyran-4-yl)hexahydropyrimidin-4-one], 0.539 µM.
Compound `Cc1ncccc1Nc1cccc([C@]2(C)CC(=O)N(C3CCOCC3)C(=N)N2)c1Cl` [Example 28, (6S)-6-{2-Chloro-3-[(2-methyl-pyridin-3-yl)amino]phenyl}-2-imino-6-methyl-3-(tetrahydro-pyran-4-yl)hexahydropyrimidin-4-one] returned an IC50 of 2.96 µM.
Then `C[C@@]1(c2cccc(Nc3ccc(F)c(Cl)c3)c2Cl)CC(=O)N(C2CCOCC2)C(=N)N1` [Example 167, (6S)-6-[2-Chloro-3-(3-chloro-4-fluoroanilino)phenyl]-2-imino-6-methyl-3-(tetrahydropyran-4-yl)hexahydropyrimidin-4-one], with 0.627 µM.
`C[C@@]1(c2cccc(Nc3cccnc3C(F)(F)F)c2Cl)CC(=O)N(C2CCOCC2)C(=N)N1` [Example 26, (6S)-6-(2-Chloro-3-{[2-(trifluoromethyl)pyridin-3-yl]amino}phenyl)-2-imino-6-methyl-3-(tetrahydropyran-4-yl)hexahydropyrimidin-4-one] came in with an IC50 of 0.331 µM.
The result for `C[C@@]1(c2cccc(Nc3ccc(C(F)(F)F)nc3)c2Cl)CC(=O)N(C2CCOCC2)C(=N)N1` [Example 31, (6S)-6-(2-Chloro-3-{[6-(trifluoromethyl)pyridin-3-yl]amino}phenyl)-2-imino-6-methyl-3-(tetrahydropyran-4-yl)hexahydropyrimidin-4-one] reads 0.43 µM.
Regarding `COc1cc(F)cc(Nc2cccc([C@]3(C)CC(=O)N(C4CCOCC4)C(=N)N3)c2Cl)c1` [Example 23, (6S)-6-[2-Chloro-3-(3-fluoro-5-methoxyanilino)phenyl]-2-imino-6-methyl-3-(tetrahydro-pyran-4-yl)hexahydropyrimidin-4-one], the IC50 worked out at 1.34 µM.
Then `C[C@@]1(c2cccc(Nc3ccc(F)cc3)c2Cl)CC(=O)N([C@@H]2CCCOC2)C(=N)N1` (relative stereo) [Example 190, (6S)-6-[2-Chloro-3-(4-fluoro-anilino)phenyl]-2-imino-6-methyl-3-[(3R* or 3S)-tetrahydropyran-3-yl]-hexahydropyrimidin-4-one], with 2.58 µM.
In turn, `C[C@@]1(c2cccc(Nc3cc(C(F)(F)F)cnc3Cl)c2Cl)CC(=O)N(C2CCOCC2)C(=N)N1` [Example 32, (6S)-6-(2-Chloro-3-{[2-chloro-5-(trifluoromethyl)pyridin-3-yl]amino}phenyl)-2-imino-6-methyl-3-(tetrahydropyran-4-yl)hexahydropyrimidin-4-one] returned an IC50 of 0.851 µM.
On to `C[C@@]1(c2cccc(Nc3cc(F)c(F)cc3F)c2Cl)CC(=O)N(C2CCOCC2)C(=N)N1` [Example 38, (6S)-6-[2-Chloro-3-(2,4,5-trifluoroanilino)phenyl]-2-imino-6-methyl-3-(tetrahydro-pyran-4-yl)hexahydropyrimidin-4-one], for which inhibition was half-maximal at 0.811 µM (IC50).
On to `C[C@@]1(c2cccc(Nc3cccc4ncccc34)c2Cl)CC(=O)N(C2CCOCC2)C(=N)N1` [Example 21, (6S)-6-[2-Chloro-3-(quinolin-5-ylamino)phenyl]-2-imino-6-methyl-3-(tetrahydropyran-4-yl)hexahydropyrimidin-4-one], for which inhibition was half-maximal at 1.18 µM (IC50).
As to `C[C@@]1(c2cccc(Nc3ccc(Cl)cc3)c2Cl)CC(=O)N(C2CCOCC2)C(=N)N1` [Example 162, (6S)-6-[2-Chloro-3-(4-chloro-anilino)phenyl]-2-imino-6-methyl-3-(tetrahydropyran-4-yl)hexahydropyrimidin-4-one], the IC50 was found to be 0.905 µM.
Take `C[C@@]1(c2cccc(Nc3cccc(Cl)c3)c2Cl)CC(=O)N(C2CCOCC2)C(=N)N1` [Example 7, (6S)-6-[2-Chloro-3-(3-chloro-anilino)phenyl]-2-imino-6-methyl-3-(tetrahydropyran-4-yl)hexahydropyrimidin-4-one]: it took 0.334 µM to reach half-maximal inhibition (IC50).
In turn, `C[C@@]1(c2cccc(Nc3ccc(F)cc3F)c2Cl)CC(=O)N([C@H]2C[C@@](C)(O)C2)C(=N)N1` [Example 120, (6S)-6-[2-Chloro-3-(2,4-difluoroanilino)phenyl]-3-(3-hydroxy-3-methylcyclobutyl)-2-imino-6-methylhexahydro-pyrimidin-4-one] showed an IC50 of 0.652 µM.
On to `COc1ccc(F)cc1Nc1cccc([C@]2(C)CC(=O)N(C3CCOCC3)C(=N)N2)c1Cl` [Example 27, (6S)-6-[2-Chloro-3-(5-fluoro-2-methoxyanilino)phenyl]-2-imino-6-methyl-3-(tetrahydro-pyran-4-yl)hexahydropyrimidin-4-one], for which the IC50 came out at 0.236 µM.
Regarding `Cc1ccc(Nc2cccc([C@]3(C)CC(=O)N(C4CCOCC4)C(=N)N3)c2Cl)cn1` [Example 14, (6S)-6-{2-Chloro-3-[(6-methyl-pyridin-3-yl)amino]phenyl}-2-imino-6-methyl-3-(tetrahydro-pyran-4-yl)hexahydropyrimidin-4-one], the IC50 turned out to be 0.28 µM.
